Assay results from patent US20260335277A1, “CHLOROTONIL DERIVATIVES” (priority 2023, published 2026).
pIC50: −log10 of the molar value. ≈ marks a conversion by molar mass, not a printed value. Where “and” joins values, the source holds several entries; their conditions need not be identical. Identical values can stand only once. Like-named read-outs stand apart in the source and are kept apart here.

What was measured:
[1] = Activity compared with chlorotonil A (general statement); details: vs chlorotonil A
[2] = In vivo PK, peroral vs. intravenous administration, peroral bioavailability; set-up: species or system mouse; details: for half-life: read-out: t1/2z (converted)
Description: According to the current invention, intravenous injection in vivo was possible for the first time using a vehicle consisting of 50% ClearSol™ in phosphate buffered saline (PBS) pH 7.4.

[3] = In vivo PK after peroral administration (soy oil); set-up: species or system mouse; details: for half-life / AUC(0-t) / Cmax / Tmax: mouse, plasma; for half-life: read-out: t1/2z (converted)
Method: Peroral administration was compared between dehalogenil and ChB1-Epo2. […] Clearance was slow (t1/2z 5.5 and 10 h for 10 and 50 mg/kg, respectively) but considerably higher than for ChB1-Epo2.

Metabolic stability = type: in vitro ADME; details: for microsomal CLint: liver microsomes, read-out: microsomal clearance
Method: (§1) Complementing the toxicity profiling, ADME properties of the lead dehalogenil were determined. This had not been possible for the first generation frontrunner ChB1-Epo2 or the natural product ChA because of their poor limit of detection. […] Across species (mouse, rat, human), metabolic stability is high while plasma stability is moderate. Besides, no hemolysis and no inhibition of the metabolically important enzyme CYP3A4 was observed by both dehalogenil and ChA. Plasma protein binding (PPB) is >99.4% in all species.

E. faecium = assay: MIC 50/90 profiling in multidrug-resistant clinical isolates; type: cell-based
Method: (§2) Minimal inhibitory concentration (MIC) of the compounds in the present invention was determined using broth microdilution performed according to EUCAST guidelines (ISO20776-1:2019). S. aureus ATCC29213 and E. faecalis ATCC29212 served as quality control strains.
(§3) Activity of dehalogenil against multidrug-resistant clinical isolates of S. aureus (n=100) and Enterococcus spp. […] Compared to the standard of care (linezolid, daptomycin and tigecyclin), dehalogenil MIC90 was lowered in both pathogens by 20-40-fold with unimodal distribution indicating no pre-existing resistances.

[4] = tested on: clinical isolates of S. aureus; assay: as above; type: cell-based
Method: as §2, §3

Hemolysis = type: cell-based
Method: as §1

[5] = literature product; cited from earlier work
S. aureus = assay: Murine foreign body (catheter) infection model; type: in vivo, mouse
Method: In a murine model, infected catheter tubings were implanted under the rodent skin followed by subcutaneous treatment (once per day with 25 mg/kg for six days).
The infection was established using a bacterial inoculum of 1×10^4 colony-forming units (CFU) injected into the lumen of the implanted peripheral venous catheter tubing fragment. Dehalogenil (25 mg/kg) was administered s.c. once per day, starting at 3 h post infection. Linezolid (Zyvoxid, Pfizer) was used as a reference antibiotic. Six days post infection, mice were euthanized, edema sizes around the implanted catheter fragment determined (c), and the catheter fragments and surrounding tissues were explanted. Bacterial loads from catheter detached biofilms (a) and in surrounding tissue homogenates (b) were determined by CFU counting. The data represent the value of every individual animal (symbols) and the median (horizontal lines). […], **p<0.01, ***p<0.001 (Kruskal-Wallis tests followed by Dunn's post hoc test).

Inhibition of CYP3A4 = type: in vitro ADME; details: cyp3a4
Method: as §1

CYP3A4 = assay: Inhibition of CYP3A4; type: in vitro ADME
Method: as §1

[6] = mouse, in vivo, mice, 7.5 mg/kg iv, mean (n = 3)
[7] = mouse, in vivo, mice, 10 mg/kg po, mean (n = 3)
[8] = mice, oral, soy oil, vs ChB1-Epo2
[9] = po, mice, 10 mg/kg, mean (n = 3)
[10] = po, mice, 50 mg/kg, mean (n = 3)
[11] = Enterococcus faecium, E. faecium (n = 98)
[12] = Staphylococcus aureus, S. aureus clinical isolates (n = 100)
[13] = 25 mg/kg SC once per day, six days

For `CC1=CC(C)C2C(C=CC3C(C)C=CC=CC(C)OC(=O)C(C)C(=O)CC(=O)C32)C1` (centres unmarked) [dehalogenil], the “activity compared to chlorotonil A” value [1] was “activity similar to chlorotonil A”, the bioavailability ([2]; mice, 7.5 mg/kg iv (reference)) was 100% and the tz ([2]; mice, 7.5 mg/kg iv, mean (n = 3)) was 24 h. It also gave a tz ([2]; mice, 10 mg/kg po, mean (n = 3)) of 24 h, an AUC(0-inf) [2, 6] of 12100 ng·h/mL and an AUC(0-t) [2, 6] of 9580 ng·h/mL. It also gave a C0 [2, 6] of 872 ng/mL, a half-life [2, 6] of 10.8 h and a bioavailability ([2]; mouse, in vivo, mice, 10 mg/kg po vs 7.5 mg/kg iv, read-out: Bioavailability) of 9.5%. It also gave an AUC(0-inf) [2, 7] of 1540 ng·h/mL, an AUC(0-t) [2, 7] of 1400 ng·h/mL and a Cmax [2, 7] of 101 ng/mL. It also gave a Tmax [2, 7] of 3 h, a half-life [2, 7] of 6.7 h and a bioavailability ([2]; mouse, in vivo, rodents, oral, read-out: oral bioavailability) of about 10%. For the same molecule, the tz ([3]; mice, 10 mg/kg, p.o., mean (n = 3)) was 24 h, the tz ([3]; mice, 50 mg/kg, p.o., mean (n = 3)) was 24 h and the “AUC0-tz compared to ChB1-Epo2” value [3, 8] was “ca. six-fold higher”. For the same molecule, the “cmax compared to ChB1-Epo2” value [3, 8] was “ca. four-fold higher”, the Clearance ([3]; mice, po, soy oil) was “slow” and the half-life ([3]; po, 10 mg/kg, mice, 10 mg/kg po, soy oil) was 5.5 h. It also gave a half-life ([3]; po, 10 mg/kg, mice, 10 mg/kg, p.o., mean (n = 3)) of 5.5 h, a half-life ([3]; po, 50 mg/kg, mice, 50 mg/kg po, soy oil) of 10 h and a half-life ([3]; po, 50 mg/kg, mice, 50 mg/kg, p.o., mean (n = 3)) of 10.2 h. The AUC(0-t) [3, 9] was 3020 ng·h/mL, the Cmax [3, 9] was 261 ng/mL and the Tmax [3, 9] was 3 h. For the same molecule, the AUC(0-t) [3, 10] was 8360 ng·h/mL, the Cmax [3, 10] was 579 ng/mL and the Tmax [3, 10] was 3 h. The higher plasma levels ([3]; rodents, comparator chlorotonil B1-Epo2 (implied)) was 3 fold, the metabolic stability (Metabolic stability; human) was “high” and the microsomal CLint (Metabolic stability; human) was 6.4 µL/min/mg. For the same molecule, the metabolic stability (Metabolic stability; mouse) was “high”, the microsomal CLint (Metabolic stability; mouse) was 6.4 µL/min/mg and the metabolic stability (Metabolic stability; rat) was “high”. For the same molecule, the microsomal CLint (Metabolic stability; rat) was 14 µL/min/mg, the MIC (E. faecium; Enterococcus faecium, read-out: MIC range) was 0.00625 to 0.2 µg/mL (≈ 0.0152 to 0.487 µM) and the MIC50 (E. faecium; [11]) was 0.025 µg/mL (≈ 0.0609 µM). The MIC90 (E. faecium; [11]) was 0.1 µg/mL (≈ 0.244 µM), the “MIC90 lowered compared to standard of care” value (E. faecium; vs linezolid, daptomycin and tigecyclin, Enterococcus spp. (n=98)) was 20-40 fold and the MIC [4, 12] was 0.025 to 0.4 µg/mL (≈ 0.0609 to 0.974 µM). The MIC50 [4, 12] was 0.1 µg/mL (≈ 0.244 µM), the MIC90 [4, 12] was 0.2 µg/mL (≈ 0.487 µM) and the “MIC90 lowered compared to standard of care” value ([4]; vs linezolid, daptomycin and tigecyclin, S. aureus (n=100)) was 20-40 fold. The hemolysis (Hemolysis) was “no hemolysis”, the hemolysis at 20 µM (Hemolysis; 20 μM, human blood cells, read-out: haemolysis of human blood cells) was 1.4% and the “activity described in the literature” value [5] was “inactive”. For the same molecule, the “reduction in bacterial loads in the tissues surrounding the catheter fragments” value (S. aureus; [13]) was > 3 log10 and 3.24 log10, the “reduction in bacterial loads on the catheter fragments” value (S. aureus; [13]) was > 3 log10 and 3.85 log10 and the “bacterial load at the site of infection and on the implant” value (S. aureus; 6×25 mg/kg SC) was “significantly reducing bacterial loads”. The pIC50 (Inhibition of CYP3A4) was 4.79 and the “inhibition of CYP3A4” value (CYP3A4) was “no inhibition”.
